{"source": "patent US20260107927A1", "about": "“ZEBRAFISH ANIMAL MODEL FOR INFLAMMATORY DISEASES AND METHOD FOR SCREEING ANTI-INFLAMMATORY AGENTS USING SAME” (RAYDEL KOREA CO., LTD., priority 2022, published 2026)", "key": {"[1]": {"tested_on": "zebrafish embryos", "assay": "CML microinjection into zebrafish embryos: survival rate and embryo development", "type": "in vivo, zebrafish (Danio rerio)", "protocol": "The present inventors constructed a zebrafish embryonic animal model microinjected with CML to establish an acute cytokine storm induction system. After confirming under a microscope that the freshly spawned zebrafish embryos were 30 minutes post-fertilization (0.5 hour post fertilization (0.5 hpf)), the fertilized embryos that were dividing normally were selected. […] The tip of the needle was sharpened by cutting it diagonally using a sharp forcep, a hole was made, and 5 μL of injection cocktail solution was added to the microglass needle.\n(§1) Eggs were densely packed and arranged at appropriate intervals on a 1% agarose gel with grooves of appropriate spacing to facilitate rapid microinjection. A microglass needle was attached to a microinjector (PV-830, World Precision Instruments, Sarasota, FL, USA), 5 μL of mineral oil was spread on a graduated hematocytometer, the needle was placed on top of it, and the contents were injected. The size of the bubble formed was measured and calibrated to the desired volume, after which it was injected into zebrafish embryos at the 2-cell and 4-cell stages.\n(§2) At this time, in order to minimize errors in the microinjection process, microinjection was performed as much as possible into the yolk area. After microinjection, the embryos were separated from the agarose gel and placed in a Petri dish, which was then filled with 20 mL of egg water (0.02 mg/L methylene blue) and stored at 28° C.\nTo compare the survival rates of zebrafish embryos, the inventors prepared a non-injected group (No injection), a PBS-injected control group (PBS control), and a CML-injected group."}, "[2]": {"tested_on": "zebrafish adults", "assay": "Intraperitoneal CML plus test substances in zebrafish adults: recovery of swimming ability and survival", "type": "in vivo, zebrafish (Danio rerio)", "details": "for swimming ability compared with CML injected group / recovery of ability to swim compared with CML injected group: co-injected with CML; for swimming ability compared with CML injected group: 30 minutes after injection; for survival rate of zebrafish adults: combined treatment with CML, FIG. 11", "text": "The cytokine storm suppression ability of the test substances was compared by confirming the swimming ability of zebrafish of the groups injected with PBS, CML, CML and Remsima (Infliximab), and CML and Actemra (Tocilizumab) via intraperitoneal administration (FIG. 9).\nThe effects of the test substances in the CML and Remsima (Infliximab) injected group and the CML and Actemra (Tocilizumab) injected group were compared."}, "[3]": {"tested_on": "liver tissue of zebrafish adults", "assay": "Hematoxylin-eosin (H&E) staining of liver tissue: inflammatory cell infiltration", "type": "in vivo, zebrafish (Danio rerio)", "protocol": "To compare the degree of acute cytokine storm induction by CML and alleviation, hematoxylin-eosin (H&E) staining was performed on zebrafish adults of the PBS-injected and CML-injected groups, and the degree of inflammatory cell infiltration in the liver tissue was investigated.\nThat is, the inhibitory effect of the IL-6 inhibitor Actemra (Tocilizumab) on inflammation caused by CML-induced glycation toxicity was greater than that of the TNF-α inhibitor Remsima (Infliximab)."}, "[4]": {"tested_on": "zebrafish adults", "assay": "Plasma total cholesterol (TC) and triglyceride (TG) after CML with or without test substances", "type": "in vivo, zebrafish (Danio rerio)", "details": "for plasma triglyceride (TG) concentration: FIG. 15", "protocol": "Zebrafish adults were treated with CML at a concentration of 3 mM, and Actemra (Tocilizumab) and Remsima (Infliximab) were simultaneously treated to confirm the effects of the test substances on reducing total cholesterol (TC) and triglyceride (TG).\nBlood was collected from zebrafish in each group, plasma was isolated, and total cholesterol (TC) and triglyceride (TG) were analyzed."}, "[5]": {"tested_on": "serum amyloid A (SAA)", "assay": "Plasma serum amyloid A after CML with or without test substances", "type": "in vivo, zebrafish (Danio rerio)", "details": "FIG. 16", "protocol": "(§3) Blood was collected from zebrafish in each group, plasma was isolated, and total cholesterol (TC) and triglyceride (TG) were analyzed. Blood was collected from zebrafish in each group, plasma was isolated, and serum amyloid A (SAA), a biomarker of hepatitis induction, interleukin-6 (IL-6), a factor that induces an acute cytokine storm in the liver, and tumor necrosis factor-α (TNF-α), an inflammatory cytokine involved in liver inflammation were analyzed."}, "[6]": {"tested_on": "interleukin-6 (IL-6)", "assay": "Plasma interleukin-6 after CML with or without test substances", "type": "in vivo, zebrafish (Danio rerio)", "details": "FIG. 17", "protocol": "as §3"}, "[7]": {"tested_on": "tumor necrosis factor-α (TNF-α)", "assay": "Plasma tumor necrosis factor-α after CML with or without test substances", "type": "in vivo, zebrafish (Danio rerio)", "details": "FIG. 18", "protocol": "as §3"}, "[8]": {"tested_on": "zebrafish adults", "assay": "Intraperitoneal CML injection into zebrafish adults: swimming ability, acute paralysis, survival", "method": "Movements of 10 zebrafish adults (16±3 weeks old) injected intraperitoneally with CML (250 μg, 10 μL) solution (final conc. of CML: 3 mM) and 10 zebrafish adults injected with PBS were observed 30 minutes and 1 hour after injection."}, "[9]": {"tested_on": "zebrafish embryos", "assay": "Combined microinjection of CML with test substances into zebrafish embryos: survival rate and development", "type": "in vivo, zebrafish (Danio rerio)", "details": "for survival rate of embryos: co-injected with 500 ng CML, 43 ng Remsima or 44 ng Actemra, after 24 hours, FIG. 3; for rate of development: co-injected with CML, 25 hours post-injection; for rate of development / developmental defects: FIG. 4; for developmental defects: microinjected mixture with CML", "protocol": "The present inventors constructed a zebrafish embryonic animal model microinjected with CML to establish an acute cytokine storm induction system. After confirming under a microscope that the freshly spawned zebrafish embryos were 30 minutes post-fertilization (0.5 hour post fertilization (0.5 hpf)), the fertilized embryos that were dividing normally were selected. A capillary glass tube (TW100F-4, World Precision Instruments, Sarasota, FL, USA) was inserted into a micro-glass needle maker (PC-10, Narishege, Tokyo, Japan), and the coil was adjusted to be in the center of the capillary glass tube, and then a needle was made at a temperature of 71.3° C. The tip of the needle was sharpened by cutting it diagonally using a sharp forcep, a hole was made, and 5 μL of injection cocktail solution was added to the microglass needle.\nas §1\nas §2, with “C. All injection processes were performed under a stereomicroscope (SMZ-168, Motic, Hong Kong) at 20× magnification.” for “C.”"}, "[10]": {"details": "CML-injected embryos, about 25 hours post-fertilization"}, "[11]": {"details": "intraperitoneal, 1 hour after injection, FIG. 9"}, "[12]": {"details": "treated simultaneously with CML, FIGS. 12 and 13"}, "[13]": {"details": "treated simultaneously with CML"}}}
{"molecule": "N[C@@H](CCCCNCC(=O)O)C(=O)O", "note": "[CML, N-ε-carboxymethyllysine]", "values": [{"measurement": "survival rate of zebrafish embryos", "setting": "[1]; 500 ng CML microinjected (20 nL, 25 mg/mL in PBS), 24 hours, FIG. 1", "result": 23.5, "unit": "%"}, {"measurement": "developmental stage of embryos", "setting": "[1]; 25 hours after CML injection, FIG. 2", "result": "21-somite stage"}, {"measurement": "developmental morphology", "setting": "[1]; CML-injected embryos", "result": "developmental malformations were present in the head and tail"}, {"measurement": "developmental state, equivalent time after fertilization", "setting": "[1]; [10]", "result": "about 19.5 hours after fertilization"}, {"measurement": "number of somites", "setting": "[1]; [10]", "result": "about 21"}, {"measurement": "number of zebrafish showing recovery of swimming ability", "setting": "[2]; CML group, 3 mM intraperitoneal, 1 hour after injection, FIG. 9", "result": "2 to 3"}, {"measurement": "inflammatory cell infiltration in liver tissue", "setting": "[3]; CML alone, FIGS. 12 and 13", "result": "approximately 23%"}, {"measurement": "inflammatory cell infiltration in liver tissue", "setting": "[3]; CML only injection group, FIG. 8", "result": 27, "unit": "%"}, {"measurement": "plasma total cholesterol (TC) concentration", "setting": "[4]; CML alone, 3 mM, FIG. 14", "result": "highest"}, {"measurement": "plasma triglyceride (TG) concentration", "setting": "[4]; CML alone, 3 mM", "result": "highest"}, {"measurement": "serum amyloid A (SAA)", "setting": "[5]; CML alone", "result": "59.7 ± 1.6", "unit": "ng/mL"}, {"measurement": "IL-6", "setting": "[6]; CML alone", "result": "76.4 ± 6.1", "unit": "pg/mL"}, {"measurement": "TNF-α", "setting": "[7]; CML alone", "result": "43.5 ± 0.4", "unit": "ng/mL"}, {"measurement": "zebrafish that recovered the ability to swim", "setting": "[8]; CML 250 μg intraperitoneal (final 3 mM), 1 hour after injection, FIGS. 5 and 6", "result": 25, "unit": "%"}, {"measurement": "movement / swimming ability", "setting": "[8]; CML 250 μg, 10 μL intraperitoneal (final 3 mM), first 30 minutes after injection", "result": "immobilized and lying on the bottom"}, {"measurement": "survival rate of zebrafish adults", "setting": "[8]; CML alone, intraperitoneal, after 60 minutes, FIG. 8", "result": "less than 49%"}]}
{"molecule": "Actemra: biopharmaceutical, an IL-6 inhibitor, used as treatment agent for rheumatoid arthritis", "values": [{"measurement": "survival rate of embryos", "setting": "[9]", "result": 53.1, "unit": "%"}, {"measurement": "rate of development", "setting": "[9]", "result": "almost the same rate of development as embryos injected with PBS"}, {"measurement": "developmental defects", "setting": "[9]", "result": "no developmental defects were observed"}, {"measurement": "recovery of swimming ability and survival rate compared with 43 μg Remsima", "setting": "[2]; 44 μg Actemra with CML, intraperitoneal, FIGS. 10 and 11", "result": "recovery of swimming ability was better and survival rate was increased"}, {"measurement": "swimming ability compared with CML injected group", "setting": "[2]; intraperitoneal, FIG. 9", "result": "More zebrafish"}, {"measurement": "recovery of ability to swim compared with CML injected group", "setting": "[2]; [11]", "result": "more zebrafish had regained the ability to swim"}, {"measurement": "survival rate of zebrafish adults", "setting": "[2]", "result": "approximately 97%"}, {"measurement": "inflammatory cell infiltration in liver tissue", "setting": "[3]; [12]", "result": "15-17%"}, {"measurement": "plasma triglyceride (TG) concentration", "setting": "[4]; treated simultaneously with 3 mM CML", "result": "lowest"}, {"measurement": "serum amyloid A (SAA)", "setting": "[5]; [13]", "result": "38.8 ± 2.0", "unit": "ng/mL"}, {"measurement": "IL-6", "setting": "[6]; [13]", "result": "51.8 ± 1.8", "unit": "pg/mL"}, {"measurement": "TNF-α", "setting": "[7]; [13]", "result": "6.8 ± 2.6", "unit": "ng/mL"}]}
{"molecule": "Remsima: biopharmaceutical, a TNF-α inhibitor, used as treatment agent for rheumatoid arthritis", "values": [{"measurement": "survival rate of embryos", "setting": "[9]", "result": 38.4, "unit": "%"}, {"measurement": "rate of development", "setting": "[9]", "result": "almost the same rate of development as embryos injected with PBS"}, {"measurement": "developmental defects", "setting": "[9]", "result": "no developmental defects were observed"}, {"measurement": "swimming ability compared with CML injected group", "setting": "[2]; intraperitoneal, FIG. 9", "result": "More zebrafish"}, {"measurement": "recovery of ability to swim compared with CML injected group", "setting": "[2]; [11]", "result": "more zebrafish had regained the ability to swim"}, {"measurement": "survival rate of zebrafish adults", "setting": "[2]", "result": 63, "unit": "%"}, {"measurement": "inflammatory cell infiltration in liver tissue", "setting": "[3]; [12]", "result": "approximately 23%"}, {"measurement": "serum amyloid A (SAA)", "setting": "[5]; [13]", "result": "41.2 ± 5.3", "unit": "ng/mL"}, {"measurement": "IL-6", "setting": "[6]; [13]", "result": "62.8 ± 3.1", "unit": "pg/mL"}, {"measurement": "TNF-α", "setting": "[7]; [13]", "result": "41.6 ± 5.8", "unit": "ng/mL"}]}
